Experimental data taken from patent US20260125400A1, “TYK2 DEGRADERS AND USES THEREOF” (Kymera Therapeutics, Inc., priority 2023, published 2026).

Each compound was assayed against T1, TYK2 (Homo sapiens, UniProt P29597) (assay: TYK2 MSD degradation in OCI-LY10 cells). Settings: OCI-LY10 cells, 4 to 24 hours incubation.
T1 construct: Degradation of TYK2 in cells was quantitatively measured using Meso Scale Discovery (MSD) technology; endogenous in cells; host or cells: OCI-LY10
Assay type: cell-based
Outline: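 Cellular TYK2 levels were measured by Meso Scale Discovery sandwich detection in RIPA lysates of OCI-LY10 cells exposed 4 to 24 hours at 37° C to nine 1:3 compound doses starting at 1 to 10 μM final; dose-response fitted by four-parameter regression.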

T1 sequence (P29597 whole entry): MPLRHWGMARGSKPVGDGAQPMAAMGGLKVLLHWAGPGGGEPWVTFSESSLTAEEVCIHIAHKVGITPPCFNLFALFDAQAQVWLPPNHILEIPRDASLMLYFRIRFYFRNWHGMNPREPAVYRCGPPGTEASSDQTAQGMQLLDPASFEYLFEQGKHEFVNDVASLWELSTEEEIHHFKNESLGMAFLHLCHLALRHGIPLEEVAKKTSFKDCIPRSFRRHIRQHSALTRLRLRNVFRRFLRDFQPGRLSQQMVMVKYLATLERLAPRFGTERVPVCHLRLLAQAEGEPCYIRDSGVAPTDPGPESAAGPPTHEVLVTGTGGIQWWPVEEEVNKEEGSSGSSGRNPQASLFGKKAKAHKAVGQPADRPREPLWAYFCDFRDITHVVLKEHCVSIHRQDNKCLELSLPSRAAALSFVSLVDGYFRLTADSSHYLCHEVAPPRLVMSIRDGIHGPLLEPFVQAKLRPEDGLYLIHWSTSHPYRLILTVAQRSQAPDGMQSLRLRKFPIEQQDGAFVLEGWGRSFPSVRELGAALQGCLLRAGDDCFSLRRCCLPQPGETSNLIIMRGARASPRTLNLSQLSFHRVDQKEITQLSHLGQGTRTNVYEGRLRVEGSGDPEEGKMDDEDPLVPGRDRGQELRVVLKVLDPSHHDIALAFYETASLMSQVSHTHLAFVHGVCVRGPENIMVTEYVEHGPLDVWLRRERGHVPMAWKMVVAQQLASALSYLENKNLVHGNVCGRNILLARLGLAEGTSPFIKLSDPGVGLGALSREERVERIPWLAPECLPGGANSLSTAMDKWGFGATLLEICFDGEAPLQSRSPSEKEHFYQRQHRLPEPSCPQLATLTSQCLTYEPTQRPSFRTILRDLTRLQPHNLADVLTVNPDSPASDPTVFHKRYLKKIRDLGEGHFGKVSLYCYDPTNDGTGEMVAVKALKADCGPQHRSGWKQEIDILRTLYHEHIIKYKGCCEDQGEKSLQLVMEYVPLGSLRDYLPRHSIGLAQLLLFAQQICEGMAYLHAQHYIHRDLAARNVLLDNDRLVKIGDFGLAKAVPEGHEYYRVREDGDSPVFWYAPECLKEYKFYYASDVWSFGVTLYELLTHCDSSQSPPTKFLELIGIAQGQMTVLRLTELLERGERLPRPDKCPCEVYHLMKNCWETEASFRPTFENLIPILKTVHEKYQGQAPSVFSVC

| Structure (SMILES) | TYK2 MSD OCI-LY10 Dmax % |
| --- | --- |
| CNc1cc(-c2cn(C3CN(C4CCN(C(=O)c5ccc(Cl)c(N6CCC(=O)NC6=O)c5)CC4)C3)c3ccccc23)nn2c(C(=O)N[C@@H]3C[C@@H]3F)cnc12 [I-745] | D (D (<50%)) |
| CNc1cc(N2CCc3c(-c4ccc(CN5CC6(CCN(C(=O)c7cc(Cl)c(C)c(N8CCC(=O)NC8=O)c7)CC6(F)F)C5)cn4)cccc32)nn2c(C(=O)N[C@@H]3CC[C@H]3OC)cnc12 [I-754] | A (A (>90%)) |
| CNc1cc(N2CCc3c(-c4ccc(CN5CC6(CCC(COc7ccc(Cl)c(C8CCC(=O)NC8=O)c7)CC6)C5)cn4)cccc32)nn2c(C(=O)N[C@@H]3C[C@@H]3F)cnc12 (stereo partly drawn) [I-462] | D (D (<50%)) |
| CNc1cc(N2CCc3c(CN4CCC(N5CCC6(CCN(C(=O)c7cc(N8CCC(=O)NC8=O)c(Cl)cc7C)CC6)CC5)C(F)(F)C4)cccc32)nn2c(C(=O)N[C@@H]3C[C@@H]3F)cnc12 (stereo partly drawn) [I-765] | B (B (90 to >75%)) |
| CNc1cc(N2CCc3c(-c4ccc(CN5CC6(CCN(Cc7ccc(OC)c(C8CCC(=O)NC8=O)c7)CC6(F)F)C5)cn4)cccc32)nn2c(C(=O)N[C@@H]3C[C@@H]3F)cnc12 (stereo partly drawn) [I-431] | B (B (90 to >75%)) |
| CNc1cc(N2CCc3c(-c4cc(CN5CCN(c6ccn7c(N8CCC(=O)NC8=O)cnc7c6)CC5)ccn4)cccc32)nn2c(C(=O)N[C@@H]3C[C@@H]3F)cnc12 [I-719] | C (C (75 to 50%)) |
| CNc1cc(N2CCc3c(CN4CCC(N5CCC(N6CCN(C(=O)c7ccc(Cl)c(N8CCC(=O)NC8=O)c7)CC6)CC5)C(F)(F)C4)cccc32)nn2c(C(=O)N[C@@H]3C[C@@H]3F)cnc12 (stereo partly drawn) [I-707] | D (D (<50%)) |

Same assay, conditions: OCI-LY10 cells, 4 to 24 hours incubation, read-out: TYK2 MSD OCI-LY10 Rel-DC50

| Structure (SMILES) | DC50 [nM] |
| --- | --- |
| CNc1cc(-c2cn(C3CN(C4CCN(C(=O)c5ccc(Cl)c(N6CCC(=O)NC6=O)c5)CC4)C3)c3ccccc23)nn2c(C(=O)N[C@@H]3C[C@@H]3F)cnc12 [I-745] | > 100 |
| CNc1cc(N2CCc3c(-c4ccc(CN5CC6(CCN(C(=O)c7cc(Cl)c(C)c(N8CCC(=O)NC8=O)c7)CC6(F)F)C5)cn4)cccc32)nn2c(C(=O)N[C@@H]3CC[C@H]3OC)cnc12 [I-754] | < 1 |
| CNc1cc(N2CCc3c(-c4ccc(CN5CC6(CCC(COc7ccc(Cl)c(C8CCC(=O)NC8=O)c7)CC6)C5)cn4)cccc32)nn2c(C(=O)N[C@@H]3C[C@@H]3F)cnc12 (stereo partly drawn) [I-462] | 10 to 100 |
| CNc1cc(N2CCc3c(CN4CCC(N5CCC6(CCN(C(=O)c7cc(N8CCC(=O)NC8=O)c(Cl)cc7C)CC6)CC5)C(F)(F)C4)cccc32)nn2c(C(=O)N[C@@H]3C[C@@H]3F)cnc12 (stereo partly drawn) [I-765] | < 10 |
| CNc1cc(N2CCc3c(-c4ccc(CN5CC6(CCN(Cc7ccc(OC)c(C8CCC(=O)NC8=O)c7)CC6(F)F)C5)cn4)cccc32)nn2c(C(=O)N[C@@H]3C[C@@H]3F)cnc12 (stereo partly drawn) [I-431] | < 10 |
| CNc1cc(N2CCc3c(-c4cc(CN5CCN(c6ccn7c(N8CCC(=O)NC8=O)cnc7c6)CC5)ccn4)cccc32)nn2c(C(=O)N[C@@H]3C[C@@H]3F)cnc12 [I-719] | < 10 |
| CNc1cc(N2CCc3c(CN4CCC(N5CCC(N6CCN(C(=O)c7ccc(Cl)c(N8CCC(=O)NC8=O)c7)CC6)CC5)C(F)(F)C4)cccc32)nn2c(C(=O)N[C@@H]3C[C@@H]3F)cnc12 (stereo partly drawn) [I-707] | < 10 |

Same assay, conditions: TYK2 degradation in OCI-LY10 cells, 4 to 24 hours incubation

| Structure (SMILES) | TYK2 MSD OCI-LY10 Dmax % |
| --- | --- |
| COC1(c2cc(C)cc(-c3cn(C4CCN(CC5CCN(C(=O)c6ccc(Cl)c(N7CCC(=O)NC7=O)c6)CC5)CC4)c4cnc(NC(C)=O)cc34)n2)CCOC1 (stereo not drawn) [I-858] | D (D (<50%)) |
| CNc1cc(N2CCc3c(CN4CCN(C5CCC6(CC5)CCN(C(=O)c5ccc(Cl)c(N7CCC(=O)NC7=O)c5)CC6)CC4)cccc32)nn2c(C(=O)N[C@@H]3C[C@@H]3F)cnc12 [I-857] | A (A (>90%)) |
| CNc1cc(N2CCc3c(-c4cc(CN5CC6(CCN(C(=O)c7ccc(Cl)c(N8CCC(=O)NC8=O)c7)CC6)C5)ccn4)cccc32)nn2c(C(=O)N[C@@H]3C[C@@H]3F)cnc12 [I-79] | D (D (<50%)) |
| CNc1cc(N2CCc3c(-c4ccc(OC5CC6(CCN(C(=O)c7cc(C)c(Cl)c(N8CCC(=O)NC8=O)c7)CC6)C5)cn4)cccc32)nn2c(C(=O)N[C@@H]3C[C@@H]3F)cnc12 [I-1017] | B (B (90 to >75%)) |
| CNc1cc(N2CCc3c(-c4ccc(CN5CC6(CCN(Cc7ccc(Cl)c(N8CCC(=O)NC8=O)c7)CC6(F)F)C5)cn4)cccc32)nn2c(C(=O)NC3CCC3OC)cnc12 (stereo not drawn) [I-1011] | B (B (90 to >75%)) |
| CNc1cc(N2CCc3c(-c4ccc(CN5CCC6(CCC(Nc7ccc(Cl)c(C8CCC(=O)NC8=O)c7)CC6)CC5)cn4)cccc32)nn2c(C(=O)N[C@@H]3C[C@@H]3F)cnc12 (stereo partly drawn) [I-251] | C (C (75 to 50%)) |
| CNc1cc(N2CCc3c(-c4ncc(CN5CC6(CCN(C(=O)c7cc(N8CCC(=O)NC8=O)c(Cl)cc7F)CC6(F)F)C5)cc4F)cccc32)nn2c(C(=O)NC3CCC3OC)cnc12 (stereo not drawn) [I-1005] | A (A (>90%)) |
| CNc1cc(N2CCc3c(C#CCN4CCC5(CN(C(=O)c6ccc(Cl)c(N7CCC(=O)NC7=O)c6)C5)C(F)(F)C4)cccc32)nn2c(C(=O)N[C@@H]3C[C@@H]3F)cnc12 [I-370] | D (D (<50%)) |
| CNc1cc(N2CCc3c(-c4ncc(CN5CC6(CCN(C(=O)c7cc(N8CCC(=O)NC8=O)c(Cl)c(C)n7)CC6(F)F)C5)cc4F)cccc32)nn2c(C(=O)N[C@@H]3C[C@@H]3F)cnc12 [I-930] | A (A (>90%)) |
| CNc1cc(N2CCc3c(-c4ccc(CN5CCC6(CCC(Oc7ccc(Cl)c(N8CCC(=O)NC8=O)c7)CC6)C(F)(F)C5)cn4)cccc32)nn2c(C(=O)NC3CCC3OC)cnc12 (stereo not drawn) [I-1010] | B (B (90 to >75%)) |
| CNc1cc(N2CCc3c(-c4ccc(CN5CC6(CCN(C(=O)c7cccc(N8CCC(=O)NC8=O)c7C)CC6)C5)cn4)cccc32)nn2c(C(=O)NC3CC3F)cnc12 (stereo not drawn) [I-309] | D (D (<50%)) |

Same assay, conditions: TYK2 degradation in OCI-LY10 cells, 4 to 24 hours incubation, read-out: TYK2 MSD OCI-LY10 Rel-DC50

| Structure (SMILES) | DC50 [nM] |
| --- | --- |
| COC1(c2cc(C)cc(-c3cn(C4CCN(CC5CCN(C(=O)c6ccc(Cl)c(N7CCC(=O)NC7=O)c6)CC5)CC4)c4cnc(NC(C)=O)cc34)n2)CCOC1 (stereo not drawn) [I-858] | > 100 |
| CNc1cc(N2CCc3c(CN4CCN(C5CCC6(CC5)CCN(C(=O)c5ccc(Cl)c(N7CCC(=O)NC7=O)c5)CC6)CC4)cccc32)nn2c(C(=O)N[C@@H]3C[C@@H]3F)cnc12 [I-857] | < 1 |
| CNc1cc(N2CCc3c(-c4cc(CN5CC6(CCN(C(=O)c7ccc(Cl)c(N8CCC(=O)NC8=O)c7)CC6)C5)ccn4)cccc32)nn2c(C(=O)N[C@@H]3C[C@@H]3F)cnc12 [I-79] | < 10 |
| CNc1cc(N2CCc3c(-c4ccc(OC5CC6(CCN(C(=O)c7cc(C)c(Cl)c(N8CCC(=O)NC8=O)c7)CC6)C5)cn4)cccc32)nn2c(C(=O)N[C@@H]3C[C@@H]3F)cnc12 [I-1017] | < 10 |
| CNc1cc(N2CCc3c(-c4ccc(CN5CC6(CCN(Cc7ccc(Cl)c(N8CCC(=O)NC8=O)c7)CC6(F)F)C5)cn4)cccc32)nn2c(C(=O)NC3CCC3OC)cnc12 (stereo not drawn) [I-1011] | < 10 |
| CNc1cc(N2CCc3c(-c4ccc(CN5CCC6(CCC(Nc7ccc(Cl)c(C8CCC(=O)NC8=O)c7)CC6)CC5)cn4)cccc32)nn2c(C(=O)N[C@@H]3C[C@@H]3F)cnc12 (stereo partly drawn) [I-251] | < 10 |
| CNc1cc(N2CCc3c(-c4ncc(CN5CC6(CCN(C(=O)c7cc(N8CCC(=O)NC8=O)c(Cl)cc7F)CC6(F)F)C5)cc4F)cccc32)nn2c(C(=O)NC3CCC3OC)cnc12 (stereo not drawn) [I-1005] | < 1 |
| CNc1cc(N2CCc3c(C#CCN4CCC5(CN(C(=O)c6ccc(Cl)c(N7CCC(=O)NC7=O)c6)C5)C(F)(F)C4)cccc32)nn2c(C(=O)N[C@@H]3C[C@@H]3F)cnc12 [I-370] | > 100 |
| CNc1cc(N2CCc3c(-c4ncc(CN5CC6(CCN(C(=O)c7cc(N8CCC(=O)NC8=O)c(Cl)c(C)n7)CC6(F)F)C5)cc4F)cccc32)nn2c(C(=O)N[C@@H]3C[C@@H]3F)cnc12 [I-930] | < 1 |
| CNc1cc(N2CCc3c(-c4ccc(CN5CCC6(CCC(Oc7ccc(Cl)c(N8CCC(=O)NC8=O)c7)CC6)C(F)(F)C5)cn4)cccc32)nn2c(C(=O)NC3CCC3OC)cnc12 (stereo not drawn) [I-1010] | < 10 |
| CNc1cc(N2CCc3c(-c4ccc(CN5CC6(CCN(C(=O)c7cccc(N8CCC(=O)NC8=O)c7C)CC6)C5)cn4)cccc32)nn2c(C(=O)NC3CC3F)cnc12 (stereo not drawn) [I-309] | > 100 |
